The target in this experiment is LRRK2 G2019S (Homo sapiens, UniProt Q5S007, G2019S). The experiment in a line: LRRK2 G2019S Km ATP LanthaScreen assay. Format: biochemical. The conditions noted are these: read-out: LRRK2 pIC50 (converted).
LRRK2 G2019S, sequence (Q5S007 whole entry G2019S): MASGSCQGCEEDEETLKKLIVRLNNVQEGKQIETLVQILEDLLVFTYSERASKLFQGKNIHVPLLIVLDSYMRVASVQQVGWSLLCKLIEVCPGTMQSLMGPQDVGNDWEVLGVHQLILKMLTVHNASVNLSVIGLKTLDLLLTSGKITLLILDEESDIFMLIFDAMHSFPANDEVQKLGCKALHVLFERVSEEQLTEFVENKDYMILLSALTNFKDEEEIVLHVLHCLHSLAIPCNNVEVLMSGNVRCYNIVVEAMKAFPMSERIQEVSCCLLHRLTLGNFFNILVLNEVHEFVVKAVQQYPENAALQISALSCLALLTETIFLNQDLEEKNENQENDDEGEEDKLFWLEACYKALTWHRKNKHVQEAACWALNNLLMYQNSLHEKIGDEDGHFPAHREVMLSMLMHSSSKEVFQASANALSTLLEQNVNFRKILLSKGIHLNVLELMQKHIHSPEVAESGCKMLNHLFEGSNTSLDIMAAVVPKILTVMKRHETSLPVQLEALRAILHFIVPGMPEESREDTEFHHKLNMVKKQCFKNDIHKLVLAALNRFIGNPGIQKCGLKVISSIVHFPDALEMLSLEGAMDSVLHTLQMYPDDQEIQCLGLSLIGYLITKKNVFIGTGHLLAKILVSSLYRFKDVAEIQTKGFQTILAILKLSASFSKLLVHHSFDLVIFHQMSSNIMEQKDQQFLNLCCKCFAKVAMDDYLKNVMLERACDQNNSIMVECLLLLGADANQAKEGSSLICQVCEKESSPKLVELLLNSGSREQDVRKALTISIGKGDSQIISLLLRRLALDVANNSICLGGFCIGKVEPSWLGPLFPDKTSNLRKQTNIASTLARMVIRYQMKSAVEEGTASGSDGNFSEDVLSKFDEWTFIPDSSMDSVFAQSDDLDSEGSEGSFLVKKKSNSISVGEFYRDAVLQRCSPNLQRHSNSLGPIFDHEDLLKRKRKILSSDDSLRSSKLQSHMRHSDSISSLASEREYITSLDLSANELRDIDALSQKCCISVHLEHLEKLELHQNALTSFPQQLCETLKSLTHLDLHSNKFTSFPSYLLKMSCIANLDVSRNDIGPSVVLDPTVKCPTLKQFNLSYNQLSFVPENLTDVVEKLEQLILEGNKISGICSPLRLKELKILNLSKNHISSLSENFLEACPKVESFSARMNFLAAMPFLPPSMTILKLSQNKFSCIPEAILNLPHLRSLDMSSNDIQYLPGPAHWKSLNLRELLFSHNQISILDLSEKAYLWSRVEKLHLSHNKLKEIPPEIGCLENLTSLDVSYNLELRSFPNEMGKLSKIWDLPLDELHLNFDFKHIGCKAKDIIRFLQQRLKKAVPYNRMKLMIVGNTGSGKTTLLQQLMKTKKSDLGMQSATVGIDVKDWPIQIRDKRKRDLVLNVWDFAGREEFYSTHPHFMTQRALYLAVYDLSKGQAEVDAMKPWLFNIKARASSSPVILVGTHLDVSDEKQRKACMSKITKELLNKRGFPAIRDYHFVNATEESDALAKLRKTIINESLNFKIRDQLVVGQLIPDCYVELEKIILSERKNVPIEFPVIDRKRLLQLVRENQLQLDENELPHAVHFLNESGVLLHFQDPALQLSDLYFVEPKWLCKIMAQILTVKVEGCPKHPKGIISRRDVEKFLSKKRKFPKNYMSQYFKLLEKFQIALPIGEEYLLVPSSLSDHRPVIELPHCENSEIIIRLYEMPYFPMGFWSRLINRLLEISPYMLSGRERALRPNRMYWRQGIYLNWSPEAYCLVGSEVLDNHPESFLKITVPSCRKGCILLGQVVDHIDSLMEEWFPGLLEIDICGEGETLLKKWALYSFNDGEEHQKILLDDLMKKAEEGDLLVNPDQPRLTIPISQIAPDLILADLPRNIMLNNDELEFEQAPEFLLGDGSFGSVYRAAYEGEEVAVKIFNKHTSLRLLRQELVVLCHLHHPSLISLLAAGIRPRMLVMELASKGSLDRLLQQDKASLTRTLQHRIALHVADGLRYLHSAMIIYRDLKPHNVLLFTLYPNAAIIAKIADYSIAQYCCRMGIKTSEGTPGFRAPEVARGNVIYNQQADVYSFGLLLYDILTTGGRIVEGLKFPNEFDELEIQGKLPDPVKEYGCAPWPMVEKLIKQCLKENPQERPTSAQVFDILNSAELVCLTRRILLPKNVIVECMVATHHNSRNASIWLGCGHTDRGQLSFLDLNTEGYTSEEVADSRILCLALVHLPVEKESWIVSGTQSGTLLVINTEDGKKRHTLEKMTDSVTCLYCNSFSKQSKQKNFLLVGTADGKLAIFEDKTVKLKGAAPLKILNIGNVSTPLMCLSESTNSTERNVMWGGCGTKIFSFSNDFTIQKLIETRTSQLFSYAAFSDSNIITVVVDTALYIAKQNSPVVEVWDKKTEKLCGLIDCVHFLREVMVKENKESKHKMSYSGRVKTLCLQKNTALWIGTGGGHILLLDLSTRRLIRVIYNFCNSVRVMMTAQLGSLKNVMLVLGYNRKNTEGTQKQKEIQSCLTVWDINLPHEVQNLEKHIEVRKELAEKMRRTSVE
Take `Cc1cc2cnc(NC(=O)C3CC34CCOC4)cc2cc1C1CCN(C2(C)COCC2F)CC1` (single isomer, unassigned) [Ex-15.12, N-(6-(1-(4-fluoro-3-methyltetrahydrofuran-3-yl)piperidin-4-yl)-7-methylisoquinolin-3-yl)-5-oxaspiro[2.4]heptane-1-carboxamide]: the IC50 is 85.1 nM.
With `Cc1cc2cnc(NC(=O)C3CC34CCOC4)cc2cc1C1CCN(C2(C)COCC2F)CC1` (single isomer, unassigned) [Ex-15.13, N-(6-(1-(4-fluoro-3-methyltetrahydrofuran-3-yl)piperidin-4-yl)-7-methylisoquinolin-3-yl)-5-oxaspiro[2.4]heptane-1-carboxamide] the figure was 2.69 nM; with `Cc1cc2cnc(NC(=O)C3CC34CCOC4)cc2cc1C1CCN(C2(C)COCC2F)CC1` (single isomer, unassigned) [Ex-15.14, N-(6-(1-(4-fluoro-3-methyltetrahydrofuran-3-yl)piperidin-4-yl)-7-methylisoquinolin-3-yl)-5-oxaspiro[2.4]heptane-1-carboxamide], 3.72 nM; with `CCC1C(C(=O)Nc2cc3cc(C4CCN(C5(C)COCC5F)CC4)c(C)cc3cn2)C1c1cnn(C)c1` (single isomer, unassigned) [Ex-15.15, 2-ethyl-N-(6-(1-(4-fluoro-3-methyltetrahydrofuran-3-yl)piperidin-4-yl)-7-methylisoquinolin-3-yl)-3-(1-methyl-1H-pyrazol-4-yl)cyclopropane-1-carboxamide], 58.9 nM.
With `Cc1cc2cnc(NC(=O)C3CC34CCOCC4)cc2cc1C1CCN(C2(C)COCC2O)CC1` (single isomer, unassigned) [Ex-15.16, N-(6-(1-(4-hydroxy-3-methyltetrahydrofuran-3-yl)piperidin-4-yl)-7-methylisoquinolin-3-yl)-6-oxaspiro[2.5]octane-1-carboxamide] the figure was 0.0813 nM.
Take `Cc1cc2cnc(NC(=O)C3CC3c3ccn(C)n3)cc2cc1C1CCN(C2(C)COCC2F)CC1` (single isomer, unassigned) [Ex-16.1]: the IC50 is 0.0813 nM.
With `Cc1cc2cnc(NC(=O)C3CC3c3cnn(C)c3)cc2cc1C1CC12CC2` (single isomer, unassigned) [Ex-16.3, 2-(1-methyl-1H-pyrazol-4-yl)-N-(7-methyl-6-(spiro[2.2]pentan-1-yl)isoquinolin-3-yl)cyclopropane-1-carboxamide] the figure was 10.5 nM; with `Cc1cc2cnc(NC(=O)C3CC3c3cnn(C)c3)cc2cc1C1CC12CC2` (single isomer, unassigned) [Ex-16.4, 2-(1-methyl-1H-pyrazol-4-yl)-N-(7-methyl-6-(spiro[2.2]pentan-1-yl)isoquinolin-3-yl)cyclopropane-1-carboxamide], 28.8 nM.
With `CCOC1CC2(C1)CC2C(=O)Nc1cc2cc(C3CCN(C4(C)COCC4F)CC3)c(C)cc2cn1` (single isomer, unassigned) [Ex-16.5, 5-ethoxy-N-(6-(1-(4-fluoro-3-methyltetrahydrofuran-3-yl)piperidin-4-yl)-7-methylisoquinolin-3-yl)spiro[2.3]hexane-1-carboxamide] the figure was 0.0813 nM; with `Cc1cc2cnc(NC(=O)C3C(C)C3c3cnn(C)c3)cc2cc1C1CCN(C2(C)COCC2F)CC1` (single isomer, unassigned) [Ex-16.7, N-(6-(1-(4-fluoro-3-methyltetrahydrofuran-3-yl)piperidin-4-yl)-7-methylisoquinolin-3-yl)-2-methyl-3-(1-methyl-1H-pyrazol-4-yl)cyclopropane-1-carboxamide], 0.0813 nM; with `Cc1cc2cnc(NC(=O)C3CC3c3ccccn3)cc2cc1C1CCN(C2(C)CCOC2)CC1` (single isomer, unassigned) [Ex-16.9, N-(7-methyl-6-(1-(3-methyltetrahydrofuran-3-yl)piperidin-4-yl)isoquinolin-3-yl)-2-(pyridin-2-yl)cyclopropane-1-carboxamide], 0.132 nM.
With `Cc1cc2cnc(NC(=O)C3CC3c3ccccn3)cc2cc1C1CCN(C2(C)CCOC2)CC1` (single isomer, unassigned) [Ex-16.10, N-(7-methyl-6-(1-(3-methyltetrahydrofuran-3-yl)piperidin-4-yl)isoquinolin-3-yl)-2-(pyridin-2-yl)cyclopropane-1-carboxamide] the figure was 0.0813 nM.
As for `Cc1cc2cnc(NC(=O)C3CC3c3ccccn3)cc2cc1C1CCN(C2(C)CCOC2)CC1` (single isomer, unassigned) [Ex-16.11, N-(7-methyl-6-(1-(3-methyltetrahydrofuran-3-yl)piperidin-4-yl)isoquinolin-3-yl)-2-(pyridin-2-yl)cyclopropane-1-carboxamide], the IC50 is 0.955 nM.
In the case of `Cc1cc2cnc(NC(=O)C3CC3c3ccccn3)cc2cc1C1CCN(C2(C)CCOC2)CC1` (single isomer, unassigned) [Ex-16.12, N-(7-methyl-6-(1-(3-methyltetrahydrofuran-3-yl)piperidin-4-yl)isoquinolin-3-yl)-2-(pyridin-2-yl)cyclopropane-1-carboxamide], the IC50 was 0.0813 nM.
With `Cc1cc2cnc(NC(=O)C3CC34CC4)cc2cc1C1CCN(C2(C)COCC2O)CC1` (single isomer, unassigned) [Ex-16.13, N-(6-(1-(4-hydroxy-3-methyltetrahydrofuran-3-yl)piperidin-4-yl)-7-methylisoquinolin-3-yl)spiro[2.2]pentane-1-carboxamide] the figure was 0.0813 nM; with `N#CC1(c2ccc3cnc(NC(=O)C4CC4)cc3c2)CC12CC2` (single isomer, unassigned) [Ex-18.1, N-(6-(1-cyanospiro[2.2]pentan-1-yl)isoquinolin-3-yl)cyclopropanecarboxamide], 2.29 nM; with `N#CC1(c2ccc3cnc(NC(=O)C4CC4)cc3c2)CC12CC2` (single isomer, unassigned) [Ex-18.2, N-(6-(1-cyanospiro[2.2]pentan-1-yl)isoquinolin-3-yl)cyclopropanecarboxamide], 3.63 nM.
With `CC1(C)CC1(C#N)c1ccc2cnc(NC(=O)C3CC3)cc2c1` (single isomer, unassigned) [Ex-18.3, (R or S)-N-(6-(1-cyano-2,2-dimethylcyclopropyl)isoquinolin-3-yl)cyclopropanecarboxamide] the figure was 24 nM; with `CC1(C)CC1(C#N)c1ccc2cnc(NC(=O)C3CC3)cc2c1` (single isomer, unassigned) [Ex-18.4, (R or S)-N-(6-(1-cyano-2,2-dimethylcyclopropyl)isoquinolin-3-yl)cyclopropanecarboxamide], 61.7 nM; with `CC1CC1(C#N)c1ccc2cnc(NC(=O)C3CC3)cc2c1` (single isomer, unassigned) [Ex-18.5, (R or S)-N-(6-(1-cyano-2-methylcyclopropyl)isoquinolin-3-yl)cyclopropanecarboxamide], 5.75 nM.
With `CC1CC1(C#N)c1ccc2cnc(NC(=O)C3CC3)cc2c1` (single isomer, unassigned) [Ex-18.6, (R or S)-N-(6-(1-cyano-2-methylcyclopropyl)isoquinolin-3-yl)cyclopropanecarboxamide] the figure was 60.3 nM.
In the case of `CC1CC1(C#N)c1ccc2cnc(NC(=O)C3CC3)cc2c1` (single isomer, unassigned) [Ex-18.7, (R or S)-N-(6-(1-cyano-2-methylcyclopropyl)isoquinolin-3-yl)cyclopropanecarboxamide], the IC50 was 4.57 nM.

The values are drawn from patent US20240398784A1, “C-LINKED ISOQUINOLINE AMIDES AS LRRK2 INHIBITORS, PHARMACEUTICAL COMPOSITIONS, AND USES THEREOF” (Merck Sharp & Dohme LLC, priority 2021, published 2024).
